The values below come from patent publication US20240034731A1, “AZA-QUINAZOLINE COMPOUNDS AND METHODS OF USE” (Iambic Therapeutics, Inc., priority 2022, published 2024).

One experiment addresses CDK6/Cyclin D3 (Homo sapiens (Human), UniProt Q00534). The experiment in a line: CDK6/Cyclin D3 ADP-Glo Kinase Assay. The format is biochemical. Particulars: 100 uM ATP, read-out: CDK6/ CyclinD3 IC50. The method in brief:
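ADP-Glo luminescence measured ADP produced by CDK6/Cyclin D3 in a 90-min room-temperature reaction started with ATP-containing substrate, after 30-min enzyme–inhibitor pre-incubation. Fractional velocity was plotted against inhibitor concentration and fitted to a four-parameter IC50 model.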
On the technique in general: In ADP-Glo the light output rises with the ADP produced.

The next experiment concerns the target CDK4/Cyclin D1 (Homo sapiens (Human), UniProt P11802). The experiment in a line: CDK4/Cyclin D1 Mobility Shift Assay (MSA). The format is biochemical. Particulars: 0.2 mM ATP, read-out: CDK4/ CyclinD1 MSA IC50. From the text: CDK4/Cyclin D1 Mobility Shift Assay (MSA)
The purpose CDK4/Cyclin D1 assay is to evaluate the inhibition (% inhibition and IC50 values) in the presence of small molecule inhibitors by using a fluorescence based microfluidic mobility shift assay. CDK4/Cyclin D1 catalyzes the production of ADP from ATP that accompanies the phosphoryl transfer to the substrate peptide 5-FAM-Dyrktide (5-FAM-[…]) (Perkin Elmer Peptide 34). The mobility shift assay (MSA) electrophoretically separates the fluorescently labelled peptides (substrate and phosphorylated product) following the kinase reaction. Both substrate and product are measured, and the ratio of these values is used to generate % conversion of substrate to product by the LabChip EZ Reader. Typical reaction solutions contained 2% DMSO (+/− inhibitor), 10 mM MgCl2, 1 mM EGTA, 0.05% BSA, 2 mM DTT, 0.2 mM ATP, 0.01% Brig-35, 1.5 uM 5-FAM-Dyrktide, 2.5 nM CDK4/Cyclin D1 in 50 mM HEPES buffer at pH 7.5. The reaction was initiated with the addition of substrate solution, following a 30-minute pre-incubation of enzyme and inhibitor at 22° C. in the reaction mix. The reaction was stopped after 180 minutes by the addition of 75 uL of 500 mM EDTA and measured on a Perkin Elmer EZ reader instrument. IC50 determinations were made from a plot of the fractional velocity as a function of inhibitor concentration fit to the 4 parameters IC50 equation.

The subject of a further experiment is OVCAR-3 cells. Nature of the experiment: Cell Growth Inhibition, OVCAR-3 (CellTiterGlo, 6 days). Particulars: Homo sapiens, 144 h, OVCAR-3, 6-day treatment. The class given is cell-based. The method in brief:
(§1)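 IC50 from four-parameter, variable-slope fits of % growth inhibition, derived from CellTiterGlo 2.0 luminescence relative to control. Compounds, usually 10-10,000 nM in half-log steps, stayed 6 days at 37 °C, 5% CO2 with 500 MCF-7 or OVCAR-3 cells/well in 10% FBS RPMI.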
On the technique in general: In ATP-based viability assays light output follows the ATP content of the culture.

In another experiment the test system is MCF-7 cells. The experiment in a line: Cell Growth Inhibition, MCF-7 (CellTiterGlo, 6 days). The class given is cell-based. Particulars: Homo sapiens, MCF7, 144 h, MCF-7, 6-day treatment. The method in brief: as §1
For a further experiment, the target named is CDK1/Cyclin B1 (Homo sapiens (Human), UniProt P06493). Nature of the experiment: CDK1/Cyclin B1 ADP-Glo Kinase Assay. The format is biochemical. Particulars: ADP-Glo, 80 uM ATP; read-out: CDK1 Cyclin B1 IC50. The method in brief: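 ADP-Glo luminescent readout of ADP production, with IC50 fitted by a four-parameter equation to fractional velocity against inhibitor concentration. Reaction started with ATP-containing substrate after a 30-minute enzyme–inhibitor pre-incubation and stopped after 90 minutes, both at room temperature.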

The next experiment addresses CDK2/Cyclin E1 (Homo sapiens (Human), UniProt P24941). Nature of the experiment: CDK2/Cyclin E1 Full length ADP-Glo Kinase Assay. Particulars: 20 uM ATP, read-out: CDK2/ CyclinE1 IC50. The class given is biochemical. The method in brief: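 ADP-Glo luminescence (ATP depletion, then ADP-to-light conversion) quantified kinase turnover after a 90 min room-temperature reaction started by ATP/substrate, following 30 min enzyme–inhibitor preincubation. Enzyme: full-length CDK2/cyclin E1; IC50 fitted with a four-parameter equation on fractional velocity.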

Sequence of CDK6/Cyclin D3 (Q00534 whole entry): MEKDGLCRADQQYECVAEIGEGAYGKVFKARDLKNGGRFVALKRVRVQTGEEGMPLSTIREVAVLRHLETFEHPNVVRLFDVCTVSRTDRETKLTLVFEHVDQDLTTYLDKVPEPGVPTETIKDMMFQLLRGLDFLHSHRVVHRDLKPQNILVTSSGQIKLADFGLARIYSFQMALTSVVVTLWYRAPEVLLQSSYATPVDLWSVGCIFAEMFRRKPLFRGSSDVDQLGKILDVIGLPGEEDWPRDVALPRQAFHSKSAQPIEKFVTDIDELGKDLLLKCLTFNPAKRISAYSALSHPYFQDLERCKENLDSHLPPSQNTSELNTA
Sequence of CDK6/Cyclin D3 (P30281 whole entry partner): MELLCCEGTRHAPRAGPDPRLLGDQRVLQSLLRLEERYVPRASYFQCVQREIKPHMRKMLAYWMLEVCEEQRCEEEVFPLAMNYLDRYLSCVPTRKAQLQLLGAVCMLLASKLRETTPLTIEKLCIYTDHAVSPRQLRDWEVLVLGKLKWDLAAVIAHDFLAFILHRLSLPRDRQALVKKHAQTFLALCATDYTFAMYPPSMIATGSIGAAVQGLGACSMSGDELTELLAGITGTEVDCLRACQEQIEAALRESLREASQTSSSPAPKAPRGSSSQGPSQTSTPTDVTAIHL
Sequence of CDK4/Cyclin D1 (P11802 whole entry): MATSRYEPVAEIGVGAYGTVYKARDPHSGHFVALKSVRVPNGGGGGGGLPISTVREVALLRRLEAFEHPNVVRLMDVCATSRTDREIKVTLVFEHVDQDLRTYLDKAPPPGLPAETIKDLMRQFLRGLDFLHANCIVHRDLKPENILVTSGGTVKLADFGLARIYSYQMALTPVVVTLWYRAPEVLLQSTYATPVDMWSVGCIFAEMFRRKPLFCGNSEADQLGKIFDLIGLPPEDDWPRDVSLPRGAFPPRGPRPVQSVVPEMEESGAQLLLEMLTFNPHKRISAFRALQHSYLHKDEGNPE
Sequence of CDK4/Cyclin D1 (P24385 whole entry partner): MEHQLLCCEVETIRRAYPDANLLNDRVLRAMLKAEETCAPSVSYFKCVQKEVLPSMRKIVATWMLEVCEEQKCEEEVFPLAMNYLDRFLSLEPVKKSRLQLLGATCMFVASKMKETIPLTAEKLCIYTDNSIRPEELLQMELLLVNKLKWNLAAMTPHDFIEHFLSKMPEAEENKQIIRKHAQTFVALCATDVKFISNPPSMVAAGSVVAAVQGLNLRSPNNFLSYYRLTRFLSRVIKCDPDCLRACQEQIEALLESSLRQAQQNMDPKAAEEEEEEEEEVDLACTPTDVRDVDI
Sequence of CDK1/Cyclin B1 (P06493 whole entry): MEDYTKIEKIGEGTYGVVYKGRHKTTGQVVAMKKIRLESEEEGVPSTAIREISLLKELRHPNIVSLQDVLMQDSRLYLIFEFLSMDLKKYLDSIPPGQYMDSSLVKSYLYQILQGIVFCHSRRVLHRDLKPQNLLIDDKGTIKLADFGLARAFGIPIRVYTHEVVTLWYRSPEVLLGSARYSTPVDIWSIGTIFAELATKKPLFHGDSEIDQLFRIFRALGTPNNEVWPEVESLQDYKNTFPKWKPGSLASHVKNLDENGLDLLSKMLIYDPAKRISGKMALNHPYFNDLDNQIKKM
Sequence of CDK1/Cyclin B1 (P14635 whole entry partner): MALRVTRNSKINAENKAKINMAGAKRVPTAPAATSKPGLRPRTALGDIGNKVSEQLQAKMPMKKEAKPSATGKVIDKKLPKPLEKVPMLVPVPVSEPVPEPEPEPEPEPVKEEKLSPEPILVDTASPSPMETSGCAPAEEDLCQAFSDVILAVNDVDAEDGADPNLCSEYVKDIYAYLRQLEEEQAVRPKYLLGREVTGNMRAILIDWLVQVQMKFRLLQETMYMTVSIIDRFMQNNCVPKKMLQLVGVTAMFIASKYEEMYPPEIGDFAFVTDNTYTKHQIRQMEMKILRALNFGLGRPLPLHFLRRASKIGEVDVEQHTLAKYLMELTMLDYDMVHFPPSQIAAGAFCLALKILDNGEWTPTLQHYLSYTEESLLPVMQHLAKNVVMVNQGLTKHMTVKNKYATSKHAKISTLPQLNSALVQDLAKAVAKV

With `CS(=O)(=O)N1CCC(Nc2ncc3ccnc(N4CCN(C5CC5)CC4)c3n2)CC1` [Compound 1, 8-(4-cyclopropylpiperazin-1-yl)-N-(1-(methylsulfonyl)piperidin-4-yl)pyrido[3,4-d]pyrimidin-2-amine], the IC50 is 200 to 500 nM on CDK6/Cyclin D3; below 200 nM on CDK4/Cyclin D1; above 2000 nM in the experiment with OVCAR-3 cells; 500 to 2000 nM with MCF-7 cells; 500 to 2000 nM on CDK1/Cyclin B1; below 200 nM at CDK2/Cyclin E1.
On to `CS(=O)(=O)N1CCC(Nc2ncc3ccnc(N4CCC5(C4)CC5(F)F)c3n2)CC1` (centres unmarked) [Compound 3, 8-(1,1-difluoro-5-azaspiro[2.4]heptan-5-yl)-N-(1-(methylsulfonyl)piperidin-4-yl)pyrido[3,4-d]pyrimidin-2-amine], for which the IC50 is below 200 nM on CDK6/Cyclin D3; below 200 nM at CDK4/Cyclin D1; below 200 nM in the experiment with OVCAR-3 cells; 500 to 2000 nM in the experiment with MCF-7 cells; below 200 nM on CDK1/Cyclin B1; below 200 nM at CDK2/Cyclin E1.
With `CN1CCN(c2ccc(Nc3ncc4ccnc(N5CCC6(C5)CC(F)(F)C6)c4n3)cc2)CC1` [Compound 4, 8-(2,2-difluoro-6-azaspiro[3.4]octan-6-yl)-N-(4-(4-methylpiperazin-1-yl)phenyl)pyrido[3,4-d]pyrimidin-2-amine], the IC50 at CDK6/Cyclin D3 is below 200 nM; at CDK4/Cyclin D1 it was below 200 nM; with OVCAR-3 cells, 500 to 2000 nM; in the experiment on MCF-7 cells, 200 to 500 nM; on CDK1/Cyclin B1 it was 200 to 500 nM; on CDK2/Cyclin E1, below 200 nM.
As to `CS(=O)(=O)N1CCC(Nc2ncc3ccnc(N4CCC(C#N)(C5CC5)C4)c3n2)CC1` (centres unmarked) [Compound 5, 3-cyclopropyl-1-(2-((1-(methylsulfonyl)piperidin-4-yl)amino)pyrido[3,4-d]pyrimidin-8-yl)pyrrolidine-3-carbonitrile], the IC50 is below 200 nM on CDK6/Cyclin D3; below 200 nM at CDK4/Cyclin D1; 500 to 2000 nM in the experiment with OVCAR-3 cells; 500 to 2000 nM in the experiment on MCF-7 cells; below 200 nM at CDK1/Cyclin B1; below 200 nM on CDK2/Cyclin E1.
For `CS(=O)(=O)N1CCC(Nc2ncc3ccnc(N4CCC5(CCOCC5)C4)c3n2)CC1` [Compound 7, N-(1-(methylsulfonyl)piperidin-4-yl)-8-(8-oxa-2-azaspiro[4.5]decan-2-yl)pyrido[3,4-d]pyrimidin-2-amine], the IC50 at CDK6/Cyclin D3 was below 200 nM; on CDK4/Cyclin D1, below 200 nM; with OVCAR-3 cells, 500 to 2000 nM; in the experiment with MCF-7 cells it was 500 to 2000 nM; on CDK1/Cyclin B1, 200 to 500 nM; on CDK2/Cyclin E1 it was below 200 nM.
Take `CS(=O)(=O)N1CCC(Nc2ncc3ccnc(N4CC5(C4)CN(C4CC4)C5)c3n2)CC1` [Compound 8, 8-(6-cyclopropyl-2,6-diazaspiro[3.3]heptan-2-yl)-N-(1-(methylsulfonyl)piperidin-4-yl)pyrido[3,4-d]pyrimidin-2-amine]: the IC50 at CDK4/Cyclin D1 is below 200 nM; in the experiment on OVCAR-3 cells, below 200 nM; in the experiment on MCF-7 cells, 500 to 2000 nM; at CDK1/Cyclin B1, 200 to 500 nM.
For the molecule `CN1CCN(c2ccc(Nc3ncc4ccnc(N5CCC6(CCN(S(C)(=O)=O)C6)C5)c4n3)cc2)CC1` (centres unmarked) [Compound 9, N-(4-(4-methylpiperazin-1-yl)phenyl)-8-(7-(methylsulfonyl)-2,7-diazaspiro[4.4]nonan-2-yl)pyrido[3,4-d]pyrimidin-2-amine], the IC50 was below 200 nM on CDK4/Cyclin D1, 500 to 2000 nM in the experiment with OVCAR-3 cells, 500 to 2000 nM with MCF-7 cells and 200 to 500 nM on CDK1/Cyclin B1.
Turning to `CN1CCn2nc(Nc3ncc4ccnc(N5CCC6(C5)CC6(F)F)c4n3)cc2C1` (centres unmarked) [Compound 10, 8-(1,1-difluoro-5-azaspiro[2.4]heptan-5-yl)-N-(5-methyl-4,5,6,7-tetrahydropyrazolo[1,5-a]pyrazin-2-yl)pyrido[3,4-d]pyrimidin-2-amine], the IC50 on CDK6/Cyclin D3 is below 200 nM; at CDK4/Cyclin D1, below 200 nM; with OVCAR-3 cells, 500 to 2000 nM; in the experiment on MCF-7 cells, 500 to 2000 nM; on CDK1/Cyclin B1, above 2000 nM; at CDK2/Cyclin E1 it was below 200 nM.
On to `CS(=O)(=O)N1CC(Nc2ncc3ccnc(N4CCC5(C4)CC5(F)F)c3n2)C1` (centres unmarked) [Compound 14, 8-(1,1-difluoro-5-azaspiro[2.4]heptan-5-yl)-N-(1-(methylsulfonyl)azetidin-3-yl)pyrido[3,4-d]pyrimidin-2-amine], for which the IC50 on CDK6/Cyclin D3 is below 200 nM; at CDK4/Cyclin D1 it was below 200 nM; with OVCAR-3 cells, above 2000 nM; in the experiment with MCF-7 cells, above 2000 nM; at CDK1/Cyclin B1, 200 to 500 nM; at CDK2/Cyclin E1, below 200 nM.
As to `CN1C[C@@H]2[C@H](C1)[C@H]2Nc1ncc2ccnc(N3CCC4(CCN(S(C)(=O)=O)C4)C3)c2n1` (stereo partly drawn) [Compound 15, N-((1R,5S,6s)-3-methyl-3-azabicyclo[3.1.0]hexan-6-yl)-8-(7-(methylsulfonyl)-2,7-diazaspiro[4.4]nonan-2-yl)pyrido[3,4-d]pyrimidin-2-amine], the IC50 at CDK6/Cyclin D3 was above 2000 nM; at CDK4/Cyclin D1, 500 to 2000 nM; with OVCAR-3 cells, above 2000 nM; in the experiment on MCF-7 cells, above 2000 nM; on CDK1/Cyclin B1, above 2000 nM; at CDK2/Cyclin E1, 500 to 2000 nM.
As to `CN1C[C@@H]2[C@H](C1)[C@H]2Nc1ncc2ccnc(N3CCC4(C3)CC4(F)F)c2n1` (stereo partly drawn) [Compound 17, 8-(1,1-difluoro-5-azaspiro[2.4]heptan-5-yl)-N-((1R,5S,6s)-3-methyl-3-azabicyclo[3.1.0]hexan-6-yl)pyrido[3,4-d]pyrimidin-2-amine], the IC50 at CDK6/Cyclin D3 is 200 to 500 nM; at CDK4/Cyclin D1, below 200 nM; with OVCAR-3 cells, 500 to 2000 nM; with MCF-7 cells, 500 to 2000 nM; on CDK1/Cyclin B1 it was above 2000 nM; at CDK2/Cyclin E1, 200 to 500 nM.
On to `CCN1CC2(C1)CN(c1ccc(Nc3ncc4ccnc(N5CCC6(CCOCC6)C5)c4n3)nc1)C2` [Compound 18, N-(5-(6-ethyl-2,6-diazaspiro[3.3]heptan-2-yl)pyridin-2-yl)-8-(8-oxa-2-azaspiro[4.5]decan-2-yl)pyrido[3,4-d]pyrimidin-2-amine], for which the IC50 at CDK6/Cyclin D3 is below 200 nM; on CDK4/Cyclin D1, below 200 nM; in the experiment on OVCAR-3 cells, above 2000 nM; with MCF-7 cells, 200 to 500 nM; at CDK1/Cyclin B1 it was above 2000 nM; at CDK2/Cyclin E1, 500 to 2000 nM.
With `CS(=O)(=O)N1CCC(Nc2ncc3ccnc(N4CC5(CCCC5)c5c(F)cccc54)c3n2)CC1` [Compound 19, 8-(4′-fluorospiro[cyclopentane-1,3′-indolin]-1′-yl)-N-(1-(methylsulfonyl)piperidin-4-yl)pyrido[3,4-d]pyrimidin-2-amine], the IC50 is above 2000 nM on CDK6/Cyclin D3; 500 to 2000 nM on CDK4/Cyclin D1; above 2000 nM in the experiment on OVCAR-3 cells; above 2000 nM in the experiment on MCF-7 cells; above 2000 nM on CDK1/Cyclin B1; below 200 nM on CDK2/Cyclin E1.
Consider `CN1CCC(n2cc(Nc3ncc4ccnc(N5CCC6(C5)CC6(F)F)c4n3)cn2)CC1` (centres unmarked) [Compound 20, 8-(1,1-difluoro-5-azaspiro[2.4]heptan-5-yl)-N-(1-(1-methylpiperidin-4-yl)-1H-pyrazol-4-yl)pyrido[3,4-d]pyrimidin-2-amine], for which the IC50 is below 200 nM on CDK6/Cyclin D3; below 200 nM at CDK4/Cyclin D1; 200 to 500 nM in the experiment with OVCAR-3 cells; 500 to 2000 nM in the experiment on MCF-7 cells; 500 to 2000 nM at CDK1/Cyclin B1; below 200 nM at CDK2/Cyclin E1.
In the case of `CN1Cc2ccc(Nc3ncc4ccnc(N5CCC6(C5)CC6(F)F)c4n3)cc2C1` (centres unmarked) [Compound 22, 8-(1,1-difluoro-5-azaspiro[2.4]heptan-5-yl)-N-(2-methylisoindolin-5-yl)pyrido[3,4-d]pyrimidin-2-amine], the IC50 on CDK6/Cyclin D3 was below 200 nM; on CDK4/Cyclin D1 it was below 200 nM; with OVCAR-3 cells, 200 to 500 nM; in the experiment on MCF-7 cells, 200 to 500 nM; on CDK1/Cyclin B1 it was below 200 nM; on CDK2/Cyclin E1, below 200 nM.
